Measurements taken from paper PMC8611673 (JACS Au, 2021).

System: HeLa 654 cells
Assay: EGFP assay with chemical endocytosis inhibitors
Assay type: cell-based, human
Conditions: higher concentrations of the inhibitor

Compound	toxicity of the inhibitor to HeLa 654 cells
C=C1[C@@H](C)[C@H]2[C@H](Cc3ccccc3)NC(=O)[C@]23[C@H](OC(C)=O)/C=C/[C@@](C)(O)C(=O)[C@@H](C)C/C=C/[C@H]3[C@@H]1O [cytochalasin D]	appeared to be toxic
COC[C@H]1OC(=O)c2coc3c2[C@@]1(C)C1=C(C3=O)[C@@H]2CCC(=O)[C@@]2(C)C[C@H]1OC(C)=O [wortmannin]	appeared to be toxic
